Test results from DBAASP.
In brackets after ≈: the same amount, converted by molar mass.

Tests used:
Test in all cases: ≥ marks a high value that may be exact or a test limit, other limits are often not marked, values filed in µg/mL are converted to µM
Staphylococcus aureus = system: Staphylococcus aureus
Leuconostoc lactis = system: Leuconostoc lactis
Listeria innocua = system: Listeria innocua
Micrococcus luteus = system: Micrococcus luteus
Pasteurella multocida = system: Pasteurella multocida
[1] = system: Staphylococcus epidermidis
Escherichia coli = system: Escherichia coli
Streptococcus uberis = system: Streptococcus uberis
Bacillus cereus = system: Bacillus cereus
[2] = system: Pseudomonas aeruginosa Ps4
[3] = system: Staphylococcus aureus ATCC 25923
[4] = system: Enterococcus faecalis 981
[5] = system: Candida albicans ATCC 2002
[6] = system: Staphylococcus carnosus KHS
[7] = system: Staphylococcus aureus ATCC 2592
[8] = system: Psychrobacter faecalis X29
[9] = system: Bacillus licheniformis X39
[10] = system: Rhodococcus rhodochrous X15
[11] = system: Klebsiella pneumoniae ATCC 10031
[12] = system: Salmonella enterica subsp. enterica serovar Typhimurium ATCC 14028
[13] = system: Escherichia coli DH5alpha
Escherichia coli JW0013 = system: Escherichia coli JW0013

**Q.** With `CC[C@H](C)[C@H](NC(=O)[C@@H](NC(=O)[C@H](C)NC(=O)[C@H](C)NC(=O)[C@@H](NC(=O)[C@H](CCCCN)NC(=O)[C@H](CCCCN)NC(=O)[C@@H](NC(=O)[C@@H](NC(=O)[C@H](C)NC(=O)[C@H](Cc1ccccc1)NC(=O)[C@H](CC(C)C)NC(=O)[C@@H](N)CCCCN)C(C)C)[C@@H](C)CC)C(C)C)C(C)C)C(=O)NCC(=O)NCC(=O)N[C@@H](CC(C)C)C(N)=O` [KLFAVIKKVAAVIGGL] as the compound, how does the MIC (Staphylococcus aureus) read?
**A.** Its MIC is 30.7 µM (≈ 50 µg/mL).

**Q.** What about the MIC (Leuconostoc lactis) of the same compound?
**A.** The MIC was 7.38 µM (≈ 12 µg/mL).

**Q.** What about the MIC (Listeria innocua) of the same compound?
**A.** The MIC was 15.4 µM (≈ 25 µg/mL).

**Q.** What about the MIC (Micrococcus luteus) of the same compound?
**A.** The MIC was at least 61.5 µM.

**Q.** And the MIC (Pasteurella multocida)?
**A.** Its MIC is at least 61.5 µM.

**Q.** And the MIC [1]?
**A.** Its MIC is 15.4 µM (≈ 25 µg/mL).

**Q.** What about the MIC (Escherichia coli) of the same compound?
**A.** The MIC was 61.5 µM (≈ 99.9 µg/mL).

**Q.** And the MIC (Streptococcus uberis)?
**A.** The MIC was at least 61.5 µM.

**Q.** What about the MIC (Bacillus cereus) of the same compound?
**A.** The MIC was at least 61.5 µM.

**Q.** For `CC[C@H](C)[C@H](NC(=O)[C@H](CC(N)=O)NC(=O)[C@H](CCCN=C(N)N)NC(=O)[C@H](CCC(N)=O)NC(=O)[C@H](Cc1c[nH]c2ccccc12)NC(=O)[C@@H](N)CS)C(=O)N[C@@H](CCCN=C(N)N)C(=O)N[C@@H](CCCCN)C(=O)N[C@@H](CS)C(=O)N[C@@H](CCCN=C(N)N)C(N)=O` [CWQRNIRKCR], which MIC [2] is on record?
**A.** The MIC was at least 183 µM.

**Q.** How did the MIC [3] turn out when `CC[C@H](C)[C@H](NC(=O)[C@H](C)N)C(=O)N[C@@H](CC(C)C)C(=O)N[C@H](C(=O)N[C@H](C(=O)N[C@@H](CC(C)C)C(=O)N[C@@H](C)C(=O)N[C@@H](CC(N)=O)C(=O)N[C@@H](Cc1c[nH]c2ccccc12)C(=O)N[C@@H](C)C(=O)N[C@@H](CCCN=C(N)N)C(=O)N[C@@H](CCCCN)C(=O)N[C@@H](Cc1ccccc1)C(=O)N[C@@H](CC(C)C)C(N)=O)[C@@H](C)O)[C@@H](C)O` [AILTTLANWARKFL] was run?
**A.** Its MIC is 37.5 µM (≈ 60.6 µg/mL).

**Q.** And the MIC [4]?
**A.** The MIC was at least 150 µM.

**Q.** What about the MIC [5] of the same compound?
**A.** The MIC was at least 75 µM.

**Q.** And the MIC [6]?
**A.** The MIC was at least 37.5 µM.

**Q.** And the MIC [7]?
**A.** Its MIC is at least 46.4 µM.

**Q.** And the MIC [8]?
**A.** Its MIC is at least 75 µM.

**Q.** And the MIC [9]?
**A.** Its MIC is 19 µM (≈ 30.7 µg/mL).

**Q.** What about the MIC [10] of the same compound?
**A.** The MIC was 4.8 µM (≈ 7.76 µg/mL).

**Q.** Which MIC [2] does the source give for `CC[C@H](C)[C@H](NC(=O)[C@H](CCCCN)NC(=O)[C@H](CCCCN)NC(=O)[C@H](CCCCN)NC(=O)[C@@H](NC(=O)[C@H](CCCCN)NC(=O)[C@H](CCCN=C(N)N)NC(=O)[C@@H](NC(=O)[C@H](CC(N)=O)NC(=O)[C@H](CCCN=C(N)N)NC(=O)[C@H](CCC(N)=O)NC(=O)[C@H](Cc1c[nH]c2ccccc12)NC(=O)[C@@H](N)Cc1ccccc1)[C@@H](C)CC)C(C)C)C(N)=O` [FWQRNIRKVKKKI] here?
**A.** Its MIC is at least 143 µM.

**Q.** With `CC[C@H](C)[C@H](NC(=O)[C@H](CCCN=C(N)N)NC(=O)[C@@H](NC(=O)[C@H](CC(N)=O)NC(=O)[C@H](CCCN=C(N)N)NC(=O)[C@H](CCC(N)=O)NC(=O)[C@H](Cc1c[nH]c2ccccc12)NC(=O)[C@@H](N)CC(C)C)[C@@H](C)CC)C(=O)N[C@@H](CCCN=C(N)N)C(=O)N[C@@H](CCCN=C(N)N)C(N)=O` [LWQRNIRIRR] as the compound, how does the MIC [2] read?
**A.** The MIC was at least 177 µM.

**Q.** How did the MIC [2] turn out when `CC(C)[C@H](NC(=O)[C@H](CCCCN)NC(=O)[C@H](CCCN=C(N)N)NC(=O)[C@H](Cc1ccc(O)cc1)NC(=O)[C@H](CC(N)=O)NC(=O)[C@H](CCCN=C(N)N)NC(=O)[C@H](CCC(N)=O)NC(=O)[C@H](Cc1c[nH]c2ccccc12)NC(=O)[C@@H](N)Cc1ccccc1)C(=O)N[C@@H](CCCN=C(N)N)C(N)=O` [FWQRNYRKVR] was run?
**A.** The MIC was at least 172 µM.

**Q.** How did the MIC [11] turn out when `CC(C)C[C@H](NC(=O)[C@H](CCCCN)NC(=O)[C@H](CCCCN)NC(=O)[C@H](CC(C)C)NC(=O)[C@H](CC(C)C)NC(=O)[C@H](CCCCN)NC(=O)[C@H](CC(C)C)NC(=O)[C@@H](N)Cc1ccccc1)C(=O)N[C@@H](C)C(=O)N[C@@H](C)C(=O)N[C@@H](CCCCN)C(=O)N[C@@H](CC(C)C)C(=O)N[C@@H](Cc1ccccc1)C(=O)O` [FLKLLKKLAAKLF] was run?
**A.** Its MIC is 16.3 µM (≈ 25 µg/mL).

**Q.** And the MIC [12]?
**A.** Its MIC is 16.3 µM (≈ 25 µg/mL).

**Q.** What about the MIC [13] of the same compound?
**A.** The MIC was 4.08 µM (≈ 6.25 µg/mL).

**Q.** With `CC[C@H](C)[C@H](NC(=O)[C@@H]1CCCN1C(=O)[C@H](Cc1ccccc1)NC(=O)[C@@H](N)Cc1ccccc1)C(=O)N[C@H](C(=O)NCC(=O)N[C@@H](CCCCN)C(=O)N[C@@H](CC(C)C)C(=O)N[C@@H](CC(C)C)C(=O)N[C@@H](CO)C(=O)NCC(=O)N[C@@H](CC(C)C)C(=O)N[C@@H](Cc1ccccc1)C(N)=O)C(C)C` [FFPIVGKLLSGLF] as the compound, how does the MIC [3] read?
**A.** The MIC was 150 µM (≈ 216 µg/mL).

**Q.** And the MIC [4]?
**A.** Its MIC is at least 75 µM.

**Q.** What about the MIC [6] of the same compound?
**A.** The MIC was 19 µM (≈ 27.3 µg/mL).

**Q.** And the MIC [9]?
**A.** Its MIC is 19 µM (≈ 27.3 µg/mL).

**Q.** What about the MIC [10] of the same compound?
**A.** The MIC was 4.5 µM (≈ 6.47 µg/mL).

**Q.** Which MIC (Escherichia coli JW0013) does the source give for `CC(C)C[C@H](NC(=O)[C@H](CCCN=C(N)N)NC(=O)[C@@H]1CCCN1C(=O)[C@@H]1CCCN1C(=O)[C@H](CCCN=C(N)N)NC(=O)[C@@H]1CCCN1C(=O)[C@H](CCCN=C(N)N)NC(=O)[C@H](CCCCN)NC(=O)[C@H](CCCN=C(N)N)NC(=O)[C@@H](N)CCCN=C(N)N)C(=O)N1CCC[C@H]1C(=O)N[C@@H](CCCN=C(N)N)C(=O)N1CCC[C@H]1C(=O)N[C@@H](CCCN=C(N)N)C(=O)N1CCC[C@H]1C(=O)N[C@@H](CCCN=C(N)N)C(=O)O` [RRKRPRPPRLPRPRPR] here?
**A.** The MIC was 0.3 µM (≈ 0.627 µg/mL).

**Q.** Which results are given for `CC[C@H](C)[C@H](NC(=O)[C@@H]1CCCN1C(=O)[C@H](CC(C)C)NC(=O)[C@@H](N)Cc1ccccc1)C(=O)N[C@H](C(=O)NCC(=O)N[C@@H](CCCCN)C(=O)N[C@@H](CC(C)C)C(=O)N[C@@H](CC(C)C)C(=O)N[C@@H](CO)C(=O)NCC(=O)N[C@@H](CC(C)C)C(=O)N[C@@H](Cc1ccccc1)C(N)=O)C(C)C` [FLPIVGKLLSGLF]?
**A.** MIC [3]: 150 µM (≈ 210 µg/mL); MIC [4]: ≥ 37.5 µM; MIC [6]: 19 µM (≈ 26.7 µg/mL); MIC [9]: 19 µM (≈ 26.7 µg/mL); MIC [10]: 9 µM (≈ 12.6 µg/mL)

**Q.** Which MIC [2] does the source give for `CC[C@H](C)[C@H](NC(=O)[C@H](CCCN=C(N)N)NC(=O)[C@H](Cc1c[nH]c2ccccc12)NC(=O)[C@@H](N)Cc1ccccc1)C(=O)N[C@@H](CCCN=C(N)N)C(=O)N[C@@H](CCCCN)C(=O)N[C@H](C(=O)N[C@@H](CCCN=C(N)N)C(N)=O)C(C)C` [FWRIRKVR] here?
**A.** The MIC was at least 215 µM.

**Q.** With `CC[C@H](C)[C@H](NC(=O)[C@H](CCCN=C(N)N)NC(=O)[C@H](Cc1c[nH]c2ccccc12)NC(=O)[C@@H](N)Cc1ccccc1)C(=O)N[C@@H](Cc1c[nH]c2ccccc12)C(=O)N[C@@H](CCCN=C(N)N)C(=O)N[C@@H](Cc1c[nH]c2ccccc12)C(=O)N[C@@H](CCCN=C(N)N)C(N)=O` [FWRIWRWR] as the compound, how does the MIC [2] read?
**A.** The MIC was 23.9 µM (≈ 31.2 µg/mL).

**Q.** For `CC[C@H](C)[C@@H]1NC(=O)[C@H](CCCCN)NC(=O)[C@@H](NC(=O)[C@H](CCCCN)NC(=O)[C@H](C)NC(=O)[C@H](CCCCN)NC(=O)[C@H](CC(=O)O)NC(=O)[C@H](CCSC)NC(=O)[C@H](CC(C)C)NC(=O)[C@@H](NC(=O)CNC(=O)[C@H](C)NC(=O)[C@H](CC(C)C)NC(=O)[C@H](CC(N)=O)NC(=O)[C@@H](NC(=O)[C@@H](NC(=O)[C@@H](NC(=O)[C@H](CC(N)=O)NC(=O)[C@H](CCSC)NC(=O)[C@H](C)NC(=O)[C@@H](NC(=O)[C@H](CC(N)=O)NC(=O)[C@H](CC(C)C)NC(=O)[C@H](Cc2ccccc2)NC(=O)CN)[C@@H](C)O)[C@@H](C)O)C(C)C)[C@@H](C)O)[C@@H](C)O)CSSC[C@@H](C(=O)O)NC(=O)CNC(=O)[C@H](CCCN=C(N)N)NC1=O` [GFLNTAMNTVTNLAGTLMDKAKCKIRGC], which MIC [8] is on record?
**A.** Its MIC is at least 400 µM.

**Q.** With `CC[C@H](C)[C@H](NC(=O)[C@H](CCCCN)NC(=O)[C@H](CC(=O)O)NC(=O)[C@H](CC(C)C)NC(=O)[C@@H](NC(=O)[C@H](CC(N)=O)NC(=O)[C@H](CC(C)C)NC(=O)[C@@H](NC(=O)[C@H](Cc1ccccc1)NC(=O)[C@H](CCC(N)=O)NC(=O)[C@H](CCCCN)NC(=O)CNC(=O)[C@H](C)NC(=O)[C@H](CC(N)=O)NC(=O)[C@H](CCCCN)NC(=O)[C@H](Cc1ccccc1)NC(=O)[C@H](CC(N)=O)NC(=O)[C@H](CCC(=O)O)NC(=O)[C@H](Cc1c[nH]c2ccccc12)NC(=O)[C@H](CC(C)C)NC(=O)[C@@H](N)CO)[C@@H](C)CC)[C@@H](C)CC)C(=O)N[C@@H](CCCN=C(N)N)C(=O)N[C@H]1CSSC[C@@H](C(=O)N[C@@H](CCCN=C(N)N)C(=O)N[C@H](C(=O)O)[C@@H](C)O)NC(=O)CNC(=O)CNC(=O)[C@H](C)NC(=O)[C@H](C(C)C)NC(=O)[C@H](CCCN=C(N)N)NC1=O` [SLWENFKNAGKQFILNILDKIRCRVAGGCRT] as the compound, how does the MIC [7] read?
**A.** The MIC was 1.7 µM (≈ 6.04 µg/mL).

**Q.** What about the MIC [8] of the same compound?
**A.** Its MIC is 1.7 µM (≈ 6.04 µg/mL).

**Q.** What about the MIC [9] of the same compound?
**A.** Its MIC is 14 µM (≈ 49.7 µg/mL).
